# Experimental data published in patent publication US8343696B2, “Colored curable composition, fluorine-containing dipyrromethene compound and tautomer thereof, and fluorine-containing dipyrromethene metal complex and tautomer thereof, and color filter using the same and method for producing the color filter” (FUJIFILM Corporation, priority 2008, dated 2013).
# Columns and labels:
# Format in all cases: physicochemical
# [1] = Absorption spectrum in ethyl acetate solution (spectrophotometer UV-2400PC)
# Method: In consideration of film thickness, the molar absorption coefficient of the specific metal complex compounds-1, -2, -3 and -4 of the invention is preferably as high as possible, and 60,000 or higher is preferable. The maximum absorption wavelength (λmax) thereof is preferably from 520 nm to 580 nm, and more preferably from 530 nm to 570 nm, in order to improve color purity. The maximum absorption wavelength and the molar absorption coefficient are determined by using a spectrophotometer UV-2400PC (manufactured by Shimadzu Corporation).
# The molar absorption coefficient (ε) of each of the obtained compounds was measured in an ethyl acetate solution using a spectrophotometer (trade name: UV-2400PC; manufactured by Shimadzu Corporation). The absorbance (Abs) at 450 nm was evaluated by normalizing the absorbance at a maximum absorption wavelength (λmax) to 1.0. […] The measurement results of the absorbance (Abs value), maximum absorption wavelength (λmax), and molar absorption coefficient (ε) are shown in Table 1.
# By the method similar to the reaction scheme in Synthesis Example 1 above, the exemplary compounds (dipyrromethene metal complex compounds or tautomers thereof) shown in Table 1 were synthesized. The identification of the compounds and the measurement of the maximum absorption wavelength (λmax) and the molar absorption coefficient (ε) of the compounds were performed similarly to Synthesis Example 1 above.
# [2] = Light-fastness of coating film (color difference ΔEab before and after xenon lamp irradiation); conditions: xenon lamp 20,000 luxes for 10 hours (200,000 lux·h)
# Method: A glass substrate having undercoat layer formed by applying the colored resin composition obtained in section 3 above was irradiated with a xenon lamp at an intensity of 20,000 luxes for 10 hours (equivalent to 200,000 lux·h), and the color difference ΔEab between before and after the irradiation was determined. The light-fastness was evaluated according to the following criteria. A smaller ΔEab value indicates better light-fastness.
# (§1) A: ΔEab value was less than 6
# (§2) B: ΔEab value was from 6 to 10
# (§3) C: ΔEab value was more than 10
# [3] = Storage stability of colored resist solution (precipitation after one month at room temperature); set-up: key: A: No precipitation was observed; B: Slight precipitation was observed; C: Precipitation was observed; conditions: negative-working colored resist solution, visual precipitation
# Excerpt: 9.4 g of the resist solution obtained in section 1 above and 0.35 g of the exemplary compound Ia-12 synthesized above (a compound represented by Formula (4): dipyrromethene complex compound) were mixed and dissolved, whereby a colored resist solution (a negative-working ultraviolet-sensitive colored curable composition) was obtained.
# The colored resist solution was stored for one month at room temperature, and then degree of precipitation was visually observed. The storage stability was evaluated according to the following criteria.
# A: No precipitation was observed
# B: Slight precipitation was observed
# C: Precipitation was observed
# [4] = Heat resistance of coating film (color difference ΔEab before and after heating); conditions: 100° C. for 1 hour on hot plate
# Method: A glass substrate having undercoat layer formed by applying the colored resin composition obtained in section 3 above was heat-treated at 100° C. for 1 hour using a hot plate, and the color difference (ΔEab) between before and after the heating was determined by using a […] MCPD-1000 (trade name, manufactured by Otsuka Electronics Co., Ltd.). The heat resistance was evaluated according to the following criteria. A smaller AEab value indicates better heat resistance.
# as §1, §2, §3
# [5] = Transmittance at 450 nm of the color filter; conditions: negative-working colored resist, 1.0 μm film; transmittance at λmax normalized to 2%
# Method: The colored resist solution obtained in section 3 above was applied to an undercoat layer side of the glass substrate having an undercoat layer obtained in section 2 above by a spin coater such that a film thickness was 1.0 μm. Subsequently, the film was pre-baked at 100° C. for 120 sec, whereby a monochromatic color filter was obtained.
# The transmission spectrum of the color filter obtained above was measured, and the transmittance at 450 nm was evaluated according to the following criteria. The transmittance of the color filter at 450 nm was evaluated by correcting (normalizing) the transmittance at the maximum absorption wavelength of the colorant included in the color filter to 2%. A larger transmittance indicates greater transmission of blue light, which indicates favorable magenta or violet color that can be used in a blue filter.
# A: Transmittance at 450 nm was 90% or more
# B: Transmittance at 450 nm was 80% or more but not more than 90%
# C: Transmittance at 450 nm was not more than 80%
SMILES,maximum absorption wavelength (λmax) [1],molar absorption coefficient (ε) [1],Abs value at 450 nm when normalized to Abs = 1.0 at λmax [1],Light-fastness [2],Storage stability [3],Heat resistance [4],Transmittance at 450 nm [5]
CC1CC(C(C)(C)C)C(OC(=O)c2c(-c3ccccc3)c3[n](c2NC(=O)c2cccc(C(F)(F)F)c2)[Zn-]([OH])[N+]2=C(NC(=O)C(C)SCCCS(=O)(=O)[O-])C(C#N)=C(c4ccccc4)C2=C3)C(C(C)(C)C)C1.[Na+] (stereo not drawn) [Ib-20],563 nm,"88,700",0.0142,B (ΔEab value was from 6 to 10),A,B (ΔEab value was from 6 to 10),A (Transmittance at 450 nm was 90% or more)
CC1CC(C(C)(C)C)C(OC(=O)c2c(-c3ccccc3)c(C=C3N=C(NC(=O)C(C)SCCCS(=O)(=O)[O-])C(C#N)=C3c3ccccc3)[n]([Zn][OH])c2NC(=O)c2cc(F)cc(F)c2)C(C(C)(C)C)C1.[Na+] (stereo not drawn) [Ib-40],562 nm,"95,600",0.0082,B (ΔEab value was from 6 to 10),A,B (ΔEab value was from 6 to 10),A (Transmittance at 450 nm was 90% or more)
CC1CC(C(C)(C)C)C(OC(=O)c2c(-c3ccccc3)c3[n](c2NC(=O)c2cc(C(F)(F)F)cc(C(F)(F)F)c2)[Zn-]([OH])[N+]2=C(NC(=O)C(C)Sc4cc(C(=O)O)cc(C(=O)O)c4)C(C#N)=C(c4ccccc4)C2=C3)C(C(C)(C)C)C1 (stereo not drawn) [Ib-41],562 nm,"76,500",0.0195,A (ΔEab value was less than 6),A,A (ΔEab value was less than 6),A (Transmittance at 450 nm was 90% or more)
CC1CC(C(C)(C)C)C(OC(=O)c2c(-c3ccccc3)c3[n](c2NC(=O)c2cc(F)ccc2NS(C)(=O)=O)[Zn-]([OH])[N+]2=C(NC(=O)C(C)Sc4cc(C(=O)O)cc(C(=O)O)c4)C(C#N)=C(c4ccccc4)C2=C3)C(C(C)(C)C)C1 (stereo not drawn) [Ib-49],566 nm,"91,500",0.0116,A (ΔEab value was less than 6),B,A (ΔEab value was less than 6),A (Transmittance at 450 nm was 90% or more)
CC1CC(C(C)(C)C)C(OC(=O)c2c(-c3ccccc3)c(C=C3N=C(NC(=O)CCCSc4cc(C(=O)O)cc(C(=O)O)c4)C(C#N)=C3c3ccccc3)[n]([Zn][OH])c2NC(=O)c2cc(F)cc(F)c2F)C(C(C)(C)C)C1 (stereo not drawn) [Ib-59],559 nm,"93,900",0.0083,A (ΔEab value was less than 6),A,A (ΔEab value was less than 6),A (Transmittance at 450 nm was 90% or more)
CC(=O)NC1=[N+]2C(=Cc3c(-c4ccccc4)c(C(=O)OC4C(C(C)(C)C)CC(C)CC4C(C)(C)C)c(NC(=O)c4cc(F)c(F)c(F)c4)[n]3[Zn-]2[OH])C(c2ccccc2)=C1C#N (stereo not drawn) [Ib-61],558 nm,"89,100",0.0101,A (ΔEab value was less than 6),A,A (ΔEab value was less than 6),A (Transmittance at 450 nm was 90% or more)
CC1CC(C(C)(C)C)C(OC(=O)c2c(-c3ccccc3)c(C=C3N=C(NC(=O)C(C)(C)C)C(C#N)=C3c3ccccc3)[n]([Zn][OH])c2NC(=O)c2c(F)c(F)c(C(=O)O)c(F)c2F)C(C(C)(C)C)C1 (stereo not drawn) [Ib-69],557 nm,"99,200",0.0111,A (ΔEab value was less than 6),A,A (ΔEab value was less than 6),A (Transmittance at 450 nm was 90% or more)

# The next lines start with results.
maximum absorption wavelength (λmax) [1],molar absorption coefficient (ε) [1],Abs value at 450 nm when normalized to Abs = 1.0 at λmax [1],Light-fastness [2],Storage stability [3],Heat resistance [4],SMILES,Transmittance at 450 nm [5]
562 nm,"87,100",0.0089,A (ΔEab value was less than 6),A,A (ΔEab value was less than 6),CC1CC(C(C)(C)C)C(OC(=O)c2c(-c3ccccc3)c3[n](c2NC(=O)c2cccc(C(F)(F)F)c2)[Zn-]([OH])[N+]2=C(NC(=O)C(C)Sc4cc(C(=O)O)cc(C(=O)O)c4)C(C#N)=C(c4ccccc4)C2=C3)C(C(C)(C)C)C1 (stereo not drawn) [Ib-15],A (Transmittance at 450 nm was 90% or more)
562 nm,"80,500",0.0173,A (ΔEab value was less than 6),A,A (ΔEab value was less than 6),CC1CC(C(C)(C)C)C(OC(=O)c2c(-c3ccccc3)c3[n](c2NC(=O)c2ccc(F)c(F)c2)[Zn-]([OH])[N+]2=C(NC(=O)C(C)Sc4cc(C(=O)O)cc(C(=O)O)c4)C(C#N)=C(c4ccccc4)C2=C3)C(C(C)(C)C)C1 (stereo not drawn) [Ib-35],A (Transmittance at 450 nm was 90% or more)
560 nm,"66,100",0.0186,A (ΔEab value was less than 6),B,A (ΔEab value was less than 6),CC1CC(C(C)(C)C)C(OC(=O)c2c(-c3ccccc3)c3[n](c2NC(=O)c2cccc(F)c2C(=O)O)[Zn-]([OH])[N+]2=C(NC(=O)C(C)Sc4cc(C(=O)O)cc(C(=O)O)c4)C(C#N)=C(c4ccccc4)C2=C3)C(C(C)(C)C)C1 (stereo not drawn) [Ib-46],A (Transmittance at 450 nm was 90% or more)
563 nm,"100,500",0.0082,A (ΔEab value was less than 6),A,A (ΔEab value was less than 6),CC1CC(C(C)(C)C)C(OC(=O)c2c(-c3ccccc3)c3[n](c2NC(=O)c2ccc(F)c(Br)c2)[Zn-]([OH])[N+]2=C(NC(=O)C(C)Sc4cc(C(=O)O)cc(C(=O)O)c4)C(C#N)=C(c4ccccc4)C2=C3)C(C(C)(C)C)C1 (stereo not drawn) [Ib-53],A (Transmittance at 450 nm was 90% or more)
564 nm,"106,400",0.0099,A (ΔEab value was less than 6),A,A (ΔEab value was less than 6),CC1CC(C(C)(C)C)C(OC(=O)c2c(-c3ccccc3)c3[n](c2NC(=O)c2c(F)c(F)c(F)c(F)c2F)[Zn-]([OH])[N+]2=C(NC(=O)C(C)Sc4cc(C(=O)O)cc(C(=O)O)c4)C(C#N)=C(c4ccccc4)C2=C3)C(C(C)(C)C)C1 (stereo not drawn) [Ib-75],A (Transmittance at 450 nm was 90% or more)
